The target of the assay is T1, BACE1 (Homo sapiens, UniProt P56817).
T1 construct: endogenous in cells; host or cells: HEK-293 cells stably transfected with wild type APP695
T1 sequence (P56817 46-501): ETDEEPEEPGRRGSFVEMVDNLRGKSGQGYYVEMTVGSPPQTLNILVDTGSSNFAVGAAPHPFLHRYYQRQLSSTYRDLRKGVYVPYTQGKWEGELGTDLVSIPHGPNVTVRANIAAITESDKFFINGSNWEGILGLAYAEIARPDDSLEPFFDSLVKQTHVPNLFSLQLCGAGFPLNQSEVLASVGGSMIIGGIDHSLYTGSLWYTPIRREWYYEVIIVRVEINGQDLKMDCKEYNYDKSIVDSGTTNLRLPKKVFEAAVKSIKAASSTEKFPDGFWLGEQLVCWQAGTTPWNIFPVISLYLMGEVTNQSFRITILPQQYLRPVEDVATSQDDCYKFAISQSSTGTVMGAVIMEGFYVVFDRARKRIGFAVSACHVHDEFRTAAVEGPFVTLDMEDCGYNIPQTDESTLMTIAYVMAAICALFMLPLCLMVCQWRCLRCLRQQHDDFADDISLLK
The experiment in a line: Cellular BACE1 Inhibition Assay (in vitro cellular Amyloidβ 1-40 production, HTRF immunoassay). The settings on record: inhibition of Amyloidβ 1-40 production; HEK-293 cells stably transfected with wild type APP695; 48 hours incubation; single assay or mean of multiple assays. In kind it is cell-based. The method, then: The BACE inhibition properties of the compounds of the invention may be determined by the following in vitro cellular Amyloidβ 1-40 production assay.
Inhibition of Amyloidβ 1-40 production was determined by incubating cells with compound for 48 hours and quantifying the level of Amyloidβ 1-40 using an homogeneous time-resolved fluorescence (“HTRF”) immunoassay.
Materials and Methods: HEK-293 cells stably transfected with a DNA construct containing the coding sequence for the wild type APP695 sequence were grown in Dulbecco's Modified Eagle Medium (“DMEM”) supplemented with 10% fetal bovine serum, penicillin/streptomycin and 150 μg/mL G418. Cells were plated in 96-well plates at 35,000 cells/well and allowed to attach for 8-12 hours. Media was changed to DMEM supplemented with 10% fetal bovine serum, penicillin/streptomycin 15 minutes prior to compound addition. Diluted compounds were then added at a final concentration of 0.5% DMSO. After 48 hours, 4 μL of media from each well was added to a corresponding well of a 384 well plate (Perkin Elmer Cat#6008280) containing the HTRF reagents. HTRF reagents were obtained from the CisBio Amyloidβ 1-40 peptide assay kit (Cat# 62B40PEC) and were prepared as follows anti-peptide β (1-40)-Cryptate and anti-peptide β (1-40)-XL655 were stored in 2 plate aliquots at −80° C. Diluent and Reconstitution buffer were stored at 4° C. Aliquots of the two antibodies were diluted 1:100 with Reconstitution buffer, and this mixture was diluted 1:2 with Diluent. 12 μL of the reagent mixture was added to the required wells of the 384 well assay plate. The assay plate was incubated at 4° C. for 17 hours and then analyzed for fluorescence at 665 and 620 nm. The reported IC50 below may be from a single assay or the mean of multiple assays.
For orientation: TR-FRET usually uses a lanthanide donor and a delayed reading to cut background.
The molecule `C[C@H]1OCCC2Oc3ccc(-c4cncc(Cl)c4)cc3[C@]3(N=C(N)N(C)C3=O)[C@@H]21` (mixture of isomers) [Example 50, (1′R*,4R*,4a′R*,10a′R*)-2-amino-8′45-chloropyridin-3-yl)-1,1′-dimethyl-3′,4′,4a′,10a'-tetrahydro-1′H-spiro[imidazole-4,10′-pyrano[4,3-b]chromen]-5(1H)-one] yielded an IC50 of 0.0132 µM.

For `CN1C(=O)[C@]2(N=C1N)c1cc(-c3cccnc3F)ccc1O[C@@]1(C)CCCO[C@H]12` (racemic) [Example 55, (4S*,4a′S*,10a′S*)-2-amino-8′-(2-fluoropyridin-3-yl)-1,4a′-dimethyl-3′,4′,4a′,10a′-tetrahydro-2′H-spiro[imidazole-4,10′-pyrano[3,2-b]chromen]-5 (1H)-one], the IC50 was determined as 0.0183 µM.

Molecule `CN1C(=O)C2(N=C1N)c1cc(-c3cccnc3F)ccc1O[C@H]1CCCC[C@H]12` (relative stereo) [Example 14, cis 2-amino-7′-(2-fluoropyridin-3-yl)-1-methyl-1′,2′,3′,4′,4a′,9a′-hexahydrospiro[imidazole-4,9′-xanthen]-5(1H)-one] displayed an IC50 of 0.0483 µM.

`CN1C(=O)C2(N=C1N)c1cc(-c3cncc(Cl)c3)ccc1O[C@H]1CCCC[C@@H]12` (relative stereo) [Example 15, trans 2-amino-7′-(5-chloropyridin-3-yl)-1-methyl-1′,2′,3′,4′,4a′,9a′-hexahydrospiro[imidazole-4,9′-xanthen]-5(1H)-one] yielded an IC50 of 0.0086 µM.

For `CN1C(=O)C2(N=C1N)c1cc(-c3cc(F)cc(Cl)c3)ccc1O[C@H]1CCCC[C@H]12` (relative stereo) [Example 32, cis 2-amino-7′-(3-chloro-5-fluorophenyl)-1-methyl-1′,2′,3′,4′,4a′,9a′-hexahydrospiro[imidazole-4,9′-xanthen]-5(1H)-one], the 50% inhibitory concentration (IC50) was determined as 0.426 µM.

Turning to `CN1C(=O)C2(N=C1N)c1cc(-c3cncc(Cl)c3)ccc1O[C@H]1CCCC[C@H]12` (relative stereo) [Example 33, cis 2-amino-7′-(5-chloropyridin-3-yl)-1-methyl-1′,2′,3′,4′,4a′,9a′-hexahydrospiro[imidazole-4,9′-xanthen]-5(1H)-one], the half-inhibitory concentration (IC50) was determined as 0.0322 µM.

`CN1C(=O)[C@]2(N=C1N)c1cc(-c3cncc(Cl)c3)ccc1O[C@]1(C)CCCO[C@H]12` (relative stereo) [Example 62, (4S*,4a′R*,10a′S*)-2-amino-8′-(5-chloropyridin-3-yl)-1,4a′-dimethyl-3′,4′,4a′,10a′-tetrahydro-2′H-spiro[imidazole-4,10′-pyrano[3,2-b]chromen]-5(1H)-one]: the IC50 is 0.0023 µM. This IC50 lies about 14-fold lower than the previous one.

`CN1C(=O)[C@]2(N=C1N)c1cc(-c3cccc(C#N)c3)ccc1O[C@]1(C)CCCO[C@H]12` (relative stereo) [Example 63, 3-((4S*,4a′R*,10a′S*)-2-amino-1,4a′-dimethyl-5-oxo-1,3′,4′,4a′,5,10a′-hexahydro-2′H-spiro[imidazole-4,10′-pyrano[3,2-b]chromen]-8′-yl)benzonitrile] returned an IC50 of 0.0043 µM.

In turn, `CN1C(=O)[C@]2(N=C1N)c1cc(-c3cccnc3F)ccc1O[C@@]1(C)CCCO[C@@H]12` (relative stereo) [Example 64, (4S*,4a′S*,10a′R*)-2-amino-8′-(2-fluoropyridin-3-yl)-1,4a′-dimethyl-3′,4′,4a′,10a′-tetrahydro-2′H-spiro[imidazole-4,10′-pyrano[3,2-b]chromen]-5(1H)-one] showed a concentration for half-maximal inhibition (IC50) of 0.0018 µM.

On to `CN1C(=O)C2(N=C1N)c1cc(-c3cc(F)cc(Cl)c3)ccc1OC1CC(O)CCC12` (centres unmarked) [Example 1, 2-amino-7′-(3-chloro-5-fluorophenyl)-3′-hydroxy-1-methyl-1′,2′,3′,4′,4a′,9a′-hexahydro spiro[imidazole-4,9′-xanthen]-5(1H)-one], for which the IC50 turned out to be 0.002 µM.

Molecule `CN1C(=O)C2(N=C1N)c1cc(-c3cccc(Cl)c3)ccc1OC1CC(O)CCC12` (centres unmarked) [Example 2, 2-amino-7′-(3-chlorophenyl)-3′-hydroxy-1-methyl-1′,2′,3′,4′,4a′,9a′-hexahydrospiro[imidazole-4,9′-xanthen]-5(1H)-one] showed an IC50 of 0.0015 µM.

On to `CN1C(=O)C2(N=C1N)c1cc(-c3cncc(Cl)c3)ccc1OC1CC(O)CCC12` (centres unmarked) [Example 3, 2-amino-7′-(5-chloropyridin-3-yl)-3′-hydroxy-1-methyl-1′,2′,3′,4′,4a′,9a′-hexahydrospiro[imidazole-4,9′-xanthen]-5(1H)-one], for which the half-maximal inhibitory concentration (IC50) is 0.0013 µM.

`CN1C(=O)C2(N=C1N)c1cc(-c3cncc(C(F)(F)F)c3)ccc1OC1CC(O)CCC12` (centres unmarked) [Example 5, 2-amino-3′-hydroxy-1-methyl-7′-(5-(trifluoromethyl)pyridin-3-yl)-1′,2′,3′,4′,4a′,9a′-hexahydrospiro[imidazole-4,9′-xanthen]-5(1H)-one] gave an IC50 of 0.0061 µM.

Molecule `CN1C(=O)C2(N=C1N)c1cc(-c3cncnc3)ccc1OC1CC(O)CCC12` (centres unmarked) [Example 6, 2-amino-3′-hydroxy-1-methyl-7′-(pyrimidin-5-yl)-1′,2′,3′,4′,4a′,9a′-hexahydrospiro[imidazole-4,9′-xanthen]-5(1H)-one] showed an IC50 of 0.0362 µM. This IC50 is about 5.9-fold higher than that of the molecule before.

Regarding `CN1C(=O)C2(N=C1N)c1cc(-c3cc(F)cc(Cl)c3)ccc1OC1CC(C)(O)CCC12` (centres unmarked) [Example 7, 2-amino-7′-(3-chloro-5-fluorophenyl)-3′-hydroxy-1,3′-dimethyl-1′,2′,3′,4′,4a′,9a′-hexahydrospiro[imidazole-4,9′-xanthen]-5(1H)-one], the IC50 was determined as 0.0359 µM.

`CN1C(=O)C2(N=C1N)c1cc(-c3cc(F)cc(Cl)c3)ccc1OC1CC(=O)CCC12` (centres unmarked) [Example 8, 2-amino-7′-(3-chloro-5-fluorophenyl)-1-methyl-1′,4′,4a′,9a′-tetrahydrospiro[imidazole-4,9′-xanthene]-3′,5(1H, 2′H)-dione] registered an IC50 of 0.0055 µM. This IC50 is about 6.5-fold lower than that of the molecule before.

The molecule `CN1C(=O)C2(N=C1N)c1cc(-c3cc(F)cc(Cl)c3)ccc1OC1CC3(CCC12)OCCO3` (centres unmarked) [Example 10, 2″-amino-7′-(3-chloro-5-fluorophenyl)-1″-methyl-1″,2′,4′,4′a,5″,9′a-hexahydro-1′H-dispiro[1,3-dioxolane-2,3′-xanthene-9′,4″-imidazole]-5″-one] had an IC50 of 0.168 µM. Against the preceding molecule, the IC50 is about 31-fold higher.

In turn, `CN1C(=O)C2(N=C1N)c1cc(-c3cc(F)cc(Cl)c3)ccc1OC1CCCC[C@@H]12` (some centres unmarked) [Example 12] came in with an IC50 of 0.0114 µM.

In turn, `CN1C(=O)C2(N=C1N)c1cc(-c3cncc(Cl)c3)ccc1OC1CC(F)(F)CCC12` (centres unmarked) [Example 17, 2-amino-7′-(5-chloropyridin-3-yl)-3′,3′-difluoro-1-methyl-1′,2′,3′,4′,4a′,9a′-hexahydrospiro[imidazole-4,9′-xanthen]-5(1H)-one] displayed a half-inhibitory concentration (IC50) of 0.0741 µM.

`CN1C(=O)C2(N=C1N)c1cc(-c3cncnc3)ccc1OC1CC(F)(F)CCC12` (centres unmarked) [Example 18, 2-amino-3′,3′-difluoro-1-methyl-7′-(pyrimidin-5-yl)-1′,2′,3′,4′,4a′,9a′-hexahydrospiro[imidazole-4,9′-xanthen]-5(1H)-one] registered an IC50 of 0.125 µM.

`CN1C(=O)C2(N=C1N)c1cc(-c3cccnc3F)ccc1OC1CC(F)(F)CCC12` (centres unmarked) [Example 19, 2-amino-3′,3′-difluoro-7′-(2-fluoropyridin-3-yl)-1-methyl-1′,2′,3′,4′,4a′,9a′-hexahydrospiro[imidazole-4,9′-xanthen]-5(1H)-one]: inhibition was half-maximal at 0.0214 µM (IC50).

Turning to `CN1C(=O)C2(N=C1N)c1cc(-c3cc(F)cc(Cl)c3)ccc1OC1CC(F)(F)CCC12` (centres unmarked) [Example 20, 2-amino-7′-(3-chloro-5-fluorophenyl)-3′,3′-difluoro-1-methyl-1′,2′,3′,4′,4a′,9a′-hexahydrospiro[imidazole-4,9′-xanthen]-5(1H)-one], the IC50 stood at 0.172 µM.

`CCOC1CCC2C(C1)Oc1ccc(-c3cc(F)cc(Cl)c3)cc1C21N=C(N)N(C)C1=O` (centres unmarked) [Example 28, 2-amino-7′-(3-chloro-5-fluorophenyl)-3′-ethoxy-1-methyl-l′,2′,3′,4′,4a′,9a′-hexahydrospiro[imidazole-4,9′-xanthen]-5(1H)-one] displayed an IC50 of 0.0512 µM.

`CN1C(=O)C2(N=C1N)c1cc(-c3cc(F)cc(Cl)c3)ccc1OC1CC(OCC3CC3)CCC12` (centres unmarked) [Example 29, 2-amino-7′-(3-chloro-5-fluorophenyl)-3′-(cyclopropylmethoxy)-1-methyl-1′,2′,3′,4′,4a′,9a′-hexahydrospiro[imidazole-4,9′-xanthen]-5(1H)-one] yielded an IC50 of 0.554 µM.

In turn, `COC1CC[C@@H]2[C@@H](C1)Oc1ccc(-c3cc(F)cc(Cl)c3)cc1C21N=C(N)N(C)C1=O` (some centres unmarked) [Example 30, (4a′R,9a′S)-2-amino-7′-(3-chloro-5-fluorophenyl)-3′-methoxy-1-methyl-1′,2′,3′,4′,4a′,9a′-hexahydrospiro[imidazole-4,9′-xanthen]-5(1H)-one] yielded an IC50 of 0.0223 µM. This IC50 lies about 25-fold lower than the previous one.

As for `CN1CC[C@@H]2Oc3ccc(-c4cc(F)cc(Cl)c4)cc3C3(N=C(N)N(C)C3=O)[C@@H]2C1` (stereo partly drawn) [Example 34, (4aS,10aS)-2′-amino-8-(3-chloro-5-fluorophenyl)-1′,2-dimethyl-1,2,3,4,4a,10a-hexahydrospiro[chromeno[3,2-c]pyridine-10,4′-imidazol]-5′(1′H)-one], the IC50 was found to be 1.67 µM.

In general, IC50 refers to the concentration that inhibits the measured activity by half. A lower IC50 goes with inhibition by little substance.

These data come from patent publication US20120083501A1, “COMPOUNDS FOR TREATING NEURODEGENERATIVE DISEASES” (priority 2010, published 2012).
